The results in this text go back to patent publication US11957687B2 (REGENERON PHARMACEUTICALS, INC., priority 2019, dated 2024).

pIC50: −log10 of the molar value.

Holding throughout (format): biochemical
One assay has as its target HSD17B13 (Homo sapiens (Human), UniProt Q7Z5P4). Put plainly: HSD17B13 enzymatic inhibition assay (150 nM or 50 nM HSD17B13). To be noted: 50 nM HSD17B13; read-out: Inhibition of 50 nM of HSD17B13 IC50.
The target in another assay is HSD17B1 (Homo sapiens (Human), UniProt P14061). Put plainly: HSD17B1 enzymatic blocking assay. To be noted: 25 μM Estradiol, 500 μM NAD; read-out: Inhibition of HSD17B1 IC50. The procedure: To screen compounds of the disclosure for their ability to block HSD17B1 function, an enzymatic blocking assay was performed. For the assay, HSD17B1 activity was measured by detecting NADH formation from oxidation of Estradiol using a NADH Glo luminescence assay (Promega, #Cat. No. G9062). […] Compounds were incubated with the enzyme for 30 minutes at room temperature. […] DMSO at a concentration of 0.5% was used as a negative control and a ‘no substrate’ control was used a positive control in the assay. Detection reagent was then added as per manufacturer's instructions, and the plate was subsequently incubated in the dark for 1 hour at room temperature, NADH generated was detected in the luminescence mode on the Envision Perkin Elmer plate reader. The IC50 values were determined using Dotmatics analysis software.

The target of a further assay is HSD17B2 (Homo sapiens (Human), UniProt P37059). The assay is described as follows: HSD17B2 enzymatic blocking assay. The conditions noted are these: 1.8 μM Estradiol, 650 μM NAD; read-out: Inhibition of HSD17B2 IC50. The procedure:
To screen compounds of the disclosure for their ability to block HSD17B2 function, an enzymatic blocking assay was performed. For the assay, HSD17B2 activity was measured by detecting NADH formation from oxidation of Estradiol using a NADH Glo luminescence assay (Promega, #Cat. No. G9062). Compounds of the disclosure were evaluated in a dose titration assay where the compounds were titrated at 10-point dose curve using an Echo-555 liquid handling dispenser. HSD17B2 (SEQ ID NO: 3, expressed in mammalian cells) was added at a final concentration of 2 ng/μL in a buffer containing 50 mM Tris-HCl, pH 7.5, Pluronic F-127 0.05%, Tween20 0.01%, BSA 0.01% into a low volume white 384-well assay plate. Compounds were incubated with the enzyme for 15 min at 20° C. The assay reaction was then initiated by addition of 1.8 μM Estradiol substrate (Sigma, catalog #E2758-250MG, CAS: 50-28-2) and 650 μM NAD co-factor, and the reaction mixture was incubated for 45 min at 20° C. DMSO at a concentration of 0.5% was used as a negative control and a ‘no substrate’ control was used a positive control in the assay. Detection reagent was then added as per manufacturer's instructions, and the plate was subsequently incubated in the dark for 1 hour at room temperature, NADH generated was detected in the luminescence mode on the Envision Perkin Elmer plate reader. The IC50 values were determined using Dotmatics analysis software.

HSD17B13, sequence (Q7Z5P4 other isoform, or with tags, fused parts or gaps): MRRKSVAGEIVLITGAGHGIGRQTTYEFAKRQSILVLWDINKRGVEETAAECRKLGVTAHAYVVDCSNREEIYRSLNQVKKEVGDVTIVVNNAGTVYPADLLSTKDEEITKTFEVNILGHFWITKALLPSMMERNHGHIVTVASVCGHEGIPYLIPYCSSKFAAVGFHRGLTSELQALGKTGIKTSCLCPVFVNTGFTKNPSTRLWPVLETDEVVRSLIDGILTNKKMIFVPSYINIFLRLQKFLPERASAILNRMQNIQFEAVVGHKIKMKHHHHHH
HSD17B2, sequence (P37059 other isoform, or with tags, fused parts or gaps): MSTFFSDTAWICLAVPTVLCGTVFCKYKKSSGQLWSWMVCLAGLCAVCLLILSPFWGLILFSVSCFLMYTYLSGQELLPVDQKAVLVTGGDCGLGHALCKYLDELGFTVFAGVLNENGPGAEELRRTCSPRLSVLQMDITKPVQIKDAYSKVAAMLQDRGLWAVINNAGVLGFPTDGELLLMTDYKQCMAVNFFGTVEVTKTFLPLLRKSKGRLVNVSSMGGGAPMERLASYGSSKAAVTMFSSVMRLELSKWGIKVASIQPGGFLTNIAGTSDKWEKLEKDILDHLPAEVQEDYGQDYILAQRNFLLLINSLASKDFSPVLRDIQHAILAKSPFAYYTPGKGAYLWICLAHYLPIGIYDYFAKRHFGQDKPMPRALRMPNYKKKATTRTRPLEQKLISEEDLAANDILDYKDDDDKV
HSD17B1, sequence (P14061 other isoform, or with tags, fused parts or gaps): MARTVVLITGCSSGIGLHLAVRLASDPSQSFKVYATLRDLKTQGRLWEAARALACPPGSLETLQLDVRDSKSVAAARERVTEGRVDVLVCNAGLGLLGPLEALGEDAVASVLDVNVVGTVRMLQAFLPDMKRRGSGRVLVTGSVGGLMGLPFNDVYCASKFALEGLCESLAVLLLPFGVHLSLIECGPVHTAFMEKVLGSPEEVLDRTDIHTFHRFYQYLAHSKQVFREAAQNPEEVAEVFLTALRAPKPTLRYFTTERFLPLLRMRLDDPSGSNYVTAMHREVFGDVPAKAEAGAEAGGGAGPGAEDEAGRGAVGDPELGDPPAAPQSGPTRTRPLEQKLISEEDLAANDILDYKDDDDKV

A word on the pIC50: it is the IC50 on a negative log10 scale, so that one unit is a factor of ten. Turning to `O=C(NC1c2ccccc2Oc2ccc(C3CC3)cc21)c1ccc(C(F)(F)F)[nH]c1=O` (stereo not drawn) [Compound 161, N-(2-cyclopropyl-9H-xanthen-9-yl)-2-oxo-6-(trifluoromethyl)-1,2-dihydropyridine-3-carboxamide], the pIC50 at HSD17B13 is 6.57; on HSD17B1, 5.04; on HSD17B2, 5.09.
For `CCc1cc(C(=O)NC2c3ccc(C)cc3Oc3cc(C)ccc32)c(=O)[nH]c1C(F)(F)F` [Compound 176, N-(3,6-dimethyl-9H-xanthen-9-yl)-5-ethyl-2-oxo-6-(trifluoromethyl)-1,2-dihydropyridine-3-carboxamide] the same measures were 7.70, 5.19 and 4.55.
With `Cc1ccc2c(c1)Oc1cc(C)ccc1C2NC(=O)c1cc(-c2ccccc2)c(C(F)(F)F)[nH]c1=O` [Compound 177, N-(3,6-dimethyl-9H-xanthen-9-yl)-2-oxo-5-phenyl-6-(trifluoromethyl)-1,2-dihydropyridine-3-carboxamide], the values for the pIC50 on HSD17B13, at HSD17B1 and at HSD17B2 were 7.40, 5.38 and 4.84, respectively.
Take `CCCc1cc(C(=O)NC2c3ccc(Cl)cc3Oc3cc(Cl)ccc32)c(=O)[nH]c1C(F)(F)F` [Compound 178, N-(3,6-dichloro-9H-xanthen-9-yl)-2-oxo-5-propyl-6-(trifluoromethyl)-1,2-dihydropyridine-3-carboxamide]: the pIC50 on HSD17B13 was 7.22; on HSD17B1, 4.54; at HSD17B2, 4.19.
`C=Cc1cc(C(=O)NC2c3ccc(C)cc3Oc3cc(C)ccc32)c(=O)[nH]c1C(F)(F)F` [Compound 182, N-(3,6-dimethyl-9H-xanthen-9-yl)-2-oxo-6-(trifluoromethyl)-5-vinyl-1,2-dihydropyridine-3-carboxamide]: the negative-log IC50 (pIC50) on HSD17B13 was 7.70; on HSD17B1 it was 5.29; at HSD17B2, 4.99.
For `Cc1ccc2c(c1)Oc1cc(C)ccc1C2NC(=O)c1cc(C2=CCCCC2)c(C(F)(F)F)[nH]c1=O` [Compound 183, 5-(cyclohex-1-en-1-yl)-N-(3,6-dimethyl-9H-xanthen-9-yl)-2-oxo-6-(trifluoromethyl)-1,2-dihydropyridine-3-carboxamide] the same measures were 7.52, 5.34 and 5.02.
On the same counts, the results for `Cc1ccc2c(c1)Oc1cc(C)ccc1C2NC(=O)c1cnc(C(F)(F)F)[nH]c1=O` [Compound 194, N-(3,6-dimethyl-9H-xanthen-9-yl)-6-oxo-2-(trifluoromethyl)-1,6-dihydropyrimidine-5-carboxamide] are 7.05, 4.72 and 4.76.
On the same counts, the results for `CCCc1cc(CCC)cc(NC(=O)c2ccc(C(F)(F)F)[nH]c2=O)c1` [Compound 271, N-(3,5-dipropylphenyl)-2-oxo-6-(trifluoromethyl)-1,2-dihydropyridine-3-carboxamide] are 5.68, 4.55 and less than 4.00.
For `COc1ccc2c(c1)Sc1cc(OC)ccc1C2NC(=O)c1ccc(C(F)F)[nH]c1=O` [Compound 274, 6-(difluoromethyl)-N-(3,6-dimethoxy-9H-thioxanthen-9-yl)-2-oxo-1,2-dihydropyridine-3-carboxamide], the pIC50 was 6.57 at HSD17B13, 5.08 at HSD17B1 and 5.04 on HSD17B2.
On the same counts, the results for `Cc1ccc2c(c1)Sc1cc(C)ccc1C2NC(=O)c1ccc(C(F)F)[nH]c1=O` [Compound 282, 6-(difluoromethyl)-N-(3,6-dimethyl-9H-thioxanthen-9-yl)-2-oxo-1,2-dihydropyridine-3-carboxamide] are 6.85, less than 4.52 and less than 4.00.
For `CCC1CCC(NC(=O)c2ccc(C(F)(F)F)[nH]c2=O)c2ccc(C)cc21` (stereo not drawn) [Compound 300, N-(4-ethyl-6-methyl-1,2,3,4-tetrahydronaphthalen-1-yl)-2-oxo-6-(trifluoromethyl)-1,2-dihydropyridine-3-carboxamide] the same measures were 6.85, 4.74 and 4.99.
On the same counts, the results for `Cc1ccc2c(c1)C(C)CCC2NC(=O)c1ccc(C(F)(F)F)[nH]c1=O` (stereo not drawn) [Compound 302, N-(4,6-dimethyl-1,2,3,4-tetrahydronaphthalen-1-yl)-2-oxo-6-(trifluoromethyl)-1,2-dihydropyridine-3-carboxamide] are 6.80, less than 4.52 and 4.64.
`CCCc1sc2cc(C)ccc2c1NC(=O)c1ccc(C(F)(F)F)[nH]c1=O` [Compound 308, N-(6-methyl-2-propylbenzo[b]thiophen-3-yl)-2-oxo-6-(trifluoromethyl)-1,2-dihydropyridine-3-carboxamide]: the pIC50 at HSD17B13 is 7.15; on HSD17B1, 4.81; at HSD17B2, 4.77.
On the same counts, the results for `CCc1sc2cc(C)ccc2c1NC(=O)c1ccc(C(F)(F)F)[nH]c1=O` [Compound 309, N-(2-ethyl-6-methylbenzo[b]thiophen-3-yl)-2-oxo-6-(trifluoromethyl)-1,2-dihydropyridine-3-carboxamide] are 7.10, 4.84 and 4.65.
On the same counts, the results for `COc1ccc2c(c1)Sc1cccnc1C2NC(=O)c1ccc(C(F)(F)F)[nH]c1=O` (stereo not drawn) [Compound 321, N-(7-methoxy-10H-thiochromeno[3,2-b]pyridin-10-yl)-2-oxo-6-(trifluoromethyl)-1,2-dihydropyridine-3-carboxamide] are 6.66, less than 4.52 and 5.08.
Turning to `COc1ccc2c(c1)Sc1cnccc1C2NC(=O)c1ccc(C(F)(F)F)[nH]c1=O` (stereo not drawn) [Compound 323, N-(8-methoxy-5H-thiochromeno[2,3-c]pyridin-5-yl)-2-oxo-6-(trifluoromethyl)-1,2-dihydropyridine-3-carboxamide], the figures for the negative-log IC50 (pIC50) at HSD17B13, at HSD17B1 and on HSD17B2 were 6.66, less than 4.52 and 4.45, respectively.
Take `Cc1cnc2c(c1)Oc1ccccc1C2NC(=O)c1ccc(C(F)(F)F)[nH]c1=O` (stereo not drawn) [Compound 324, N-(3-methyl-10H-chromeno[3,2-b]pyridin-10-yl)-2-oxo-6-(trifluoromethyl)-1,2-dihydropyridine-3-carboxamide]: the values for the pIC50 on HSD17B13, on HSD17B1 and on HSD17B2 were 7.40, less than 4.52 and 4.25, respectively.
For the compound `Cc1ccc2c(c1)Oc1cnccc1C2NC(=O)c1ccc(C(F)(F)F)[nH]c1=O` (stereo not drawn) [Compound 328, N-(8-methyl-5H-chromeno[2,3-c]pyridin-5-yl)-2-oxo-6-(trifluoromethyl)-1,2-dihydropyridine-3-carboxamide], the pIC50 was 6.96 on HSD17B13, 5.38 at HSD17B1 and less than 4.00 at HSD17B2.
With `Cc1ccc2c(c1)Oc1ccncc1C2NC(=O)c1ccc(C(F)(F)F)[nH]c1=O` (stereo not drawn) [Compound 330, N-(7-methyl-10H-chromeno[3,2-c]pyridin-10-yl)-2-oxo-6-(trifluoromethyl)-1,2-dihydropyridine-3-carboxamide], the values for the pIC50 on HSD17B13, on HSD17B1 and on HSD17B2 were 7.10, less than 4.52 and 4.66, respectively.
On to `CCC[C@@H]1Oc2ccc(C)cc2[C@@H]1NC(=O)c1ccc(C(F)(F)F)[nH]c1=O` [Compound 354, N-((2S,3S)-5-methyl-2-propyl-2,3-dihydrobenzofuran-3-yl)-2-oxo-6-(trifluoromethyl)-1,2-dihydropyridine-3-carboxamide], for which the values for the negative logarithm of the IC50 (pIC50) at HSD17B13, at HSD17B1 and on HSD17B2 were 6.29, less than 4.52 and 4.53, respectively.
On the same counts, the results for `CCC1Oc2ccc(C)cc2C1NC(=O)c1ccc(C(F)(F)F)[nH]c1=O` (stereo not drawn) [Compound 355, N-(2-ethyl-5-methyl-2,3-dihydrobenzofuran-3-yl)-2-oxo-6-(trifluoromethyl)-1,2-dihydropyridine-3-carboxamide] are 6.28, less than 4.52 and 4.42.
On the same counts, the results for `Cc1ccc2c(c1)OC(C)CC2NC(=O)c1ccc(C(F)(F)F)[nH]c1=O` (stereo not drawn) [Compound 405, N-(2,7-dimethylchroman-4-yl)-2-oxo-6-(trifluoromethyl)-1,2-dihydropyridine-3-carboxamide] are 6.80, less than 4.52 and less than 4.00.
